Experiments:
[1] = target: T1, oligomeric amyloid-β / PrP^c interaction (Homo sapiens, UniProt P04156); type: binding
[2] = in vivo; cited from earlier work
[3] = test system: human purified monocytes; experiment: Stimulated IL-6 release from human purified monocytes (ELISA); type: cell-based; details: 24 h, LMW-DS 60-600 µg/ml, heparin 2.0-20 µg/ml, dexamethasone 3.0 µM
Method: Peripheral blood mononuclear cells (PBMC) were isolated from healthy donors through Ficoll-Paque PLUS (GE Healthcare; 11778538) density centrifugation. Monocytes were purified using the EasySep™ human monocyte enrichment kit (StemCell) that purifies monocytes ‘untouched’ to maintain their phenotype.
Monocytes were cultured in the absence (unstimulated PBS vehicle controls) or presence of stimulation (LPS or peptidoglycan) in the absence (vehicle) or presence of LMW-DS (Tikomed AB, Viken, Sweden, WO 2016/076780; three concentrations; top concentration 600 µg/ml, 200 µg/ml and 60 µg/ml), heparin (2.0, 6.0 or 20 µg/ml; equivalent to 0.406, 1.218 and 4.06 units/ml; Sigma Aldrich) or dexamethasone (3.0 µM; Sigma Aldrich) for 24 hours at 37° C., 5% CO2. Following centrifugation, cell culture supernatants were removed and stored at -20° C. awaiting analysis for IL-6 by ELISA. Levels of IL-6 were quantified in the supernatant by ELISA (R&D systems) according to manufacturer’s instructions.

[4] = test system: mouse model of muscle atrophy; details: after 2 weeks of treatment; cited from earlier work
[5] = target: T1, oligomeric amyloid-β / PrP^c interaction; details: cited from earlier work

## dextran
[1]
  competition for the protein-protein interaction between oligomeric amyloid-β and PrP^c: failed to compete appreciably

## adalimumab
[2]
  half-life: around 14 days

## heparin [reference compound]
[3]; LPS 0.01 ng/ml
  LPS-stimulated IL-6 release: concentration dependent statistically significant enhancement
[3]; peptidoglycan 30 ng/ml
  peptidoglycan-stimulated IL-6 release: did not reach statistical significance

## infliximab
[2]
  half-life: around 14 days

## recombinant HGF: recombinant hepatocyte growth factor
[4]
  increase in muscle mass: 18%

## certolizumab
[2]
  half-life: around 14 days

## dextran sulphate sodium salt [DSSS]
[5]
  effective concentrations to compete with the amyloid-β / PrP^c interaction: low µg/ml range
[1]
  Competable binding (%): 101±2%
  Hill coefficient: 1.51±0.06
  IC50: 0.62 ± 0.07 µg/mL

Reference: patent US20230346827A1 (priority 2020, published 2023)
